The target in the assay is T1, butyric acid olfactory receptor OR51E1 (Homo sapiens, UniProt Q8TCB6).
T1 construct: expressed in transfected cells
T1 sequence (Q8TCB6 1-318): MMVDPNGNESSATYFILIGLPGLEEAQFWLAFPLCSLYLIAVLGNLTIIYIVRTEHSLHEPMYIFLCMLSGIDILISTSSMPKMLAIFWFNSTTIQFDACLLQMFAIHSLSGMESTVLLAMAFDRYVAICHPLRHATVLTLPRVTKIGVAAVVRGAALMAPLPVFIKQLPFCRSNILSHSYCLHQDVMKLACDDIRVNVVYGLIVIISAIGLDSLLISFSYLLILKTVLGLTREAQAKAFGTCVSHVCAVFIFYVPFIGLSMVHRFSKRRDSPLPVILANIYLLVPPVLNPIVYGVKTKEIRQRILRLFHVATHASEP
In words: Inhibitory dose-response assay in a cell line expressing the OR51E1 olfactory receptor, in the presence of butyric acid (EC87). The class given is cell-based. As to conditions: maximum % inhibition of butyric acid (EC87) induced OR51E1 activity, normalized to baseline agonist activity.

For the compound `CC(=NO)C1C(C)C(C)[C@@]23CC[C@H](CC12)C3` (some centres unmarked) [~{N}-[1[(1~{S},7~{R})-2,3-dimethyl-4-tricyclo[5.2.1.0^1,5]decanyl]ethylidene]hydroxylamine], the “Inhibition (%)” value is listed as 19%.

As for `CC1CC(C)(C=NO)C2C[C@H]3CC[C@]12C3` (some centres unmarked) [~{N}-[[(1~{S},7~{R})-2,4-dimethyl-4-tricyclo[5.2.1.0^1,5]decanyl]methylidene]hydroxylamine], the “Inhibition (%)” value is recorded as 38%.

The values above are taken from patent publication US11168283B2, “Malodor counteracting ingredients” (Firmenich SA, priority 2017, dated 2021).
